{"source": "the supplement of paper PMC10307832", "test_in_all_cases": "relative viability (nuclei count vs DMSO), 5 days (fraction); higher = more cells survive", "key": {"NCI-H1793": {"test_system": "NCI-H1793", "method_in_brief": "(§1)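 Relative viability is defined as nuclei in treated wells over nuclei in vehicle wells. Duplicate plates were run and medians reported. Lung cancer cell lines in 1536-well plates were dosed by pin tool one day after seeding, with one drug or with a fixed anchor-drug dose plus five library-drug doses (not always all listed) in √10 steps, and nuclei were counted after 5 days.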"}, "NCI-H1915": {"test_system": "NCI-H1915", "method_in_brief": "as §1"}, "LCLC-97TM1": {"test_system": "LCLC-97TM1", "method_in_brief": "as §1"}, "NCI-H441": {"test_system": "NCI-H441", "method_in_brief": "as §1"}, "A-427": {"test_system": "A-427", "method_in_brief": "as §1"}, "NCI-H460": {"test_system": "NCI-H460", "method_in_brief": "as §1"}, "NCI-H322M": {"test_system": "NCI-H322M", "method_in_brief": "as §1"}, "NCI-H23": {"test_system": "NCI-H23", "method_in_brief": "as §1"}, "NCI-H1755": {"test_system": "NCI-H1755", "method_in_brief": "as §1"}, "NCI-H1666": {"test_system": "NCI-H1666", "method_in_brief": "as §1"}, "PC-3 [JPC-3]": {"test_system": "PC-3 [JPC-3]", "method_in_brief": "as §1"}, "LU99A": {"test_system": "LU99A", "method_in_brief": "as §1"}, "NCI-H2126": {"test_system": "NCI-H2126", "method_in_brief": "as §1"}, "LOU-NH91": {"test_system": "LOU-NH91", "method_in_brief": "as §1"}, "LXF-289": {"test_system": "LXF-289", "method_in_brief": "as §1"}, "BEN": {"test_system": "BEN", "method_in_brief": "as §1"}, "NCI-H1395": {"test_system": "NCI-H1395", "method_in_brief": "as §1"}, "NCI-H650": {"test_system": "NCI-H650", "method_in_brief": "as §1"}, "NCI-H2170": {"test_system": "NCI-H2170", "method_in_brief": "as §1"}, "HARA": {"test_system": "HARA", "method_in_brief": "as §1"}, "NCI-H1944": {"test_system": "NCI-H1944", "method_in_brief": "as §1"}}}
{"smiles": "Cc1cnc(-c2cnc(NCCNc3ccc(C#N)cn3)nc2-c2ccc(Cl)cc2Cl)[nH]1", "note": "+ NC(=O)Nc1cc(-c2cccc(F)c2)sc1C(=O)N[C@H]1CCCNC1 [AZD7762] (partner 0.2 µM)", "values": [{"measurement": "relative viability", "setting": "NCI-H1793; first compound 0.08 µM", "value": 0.735}, {"measurement": "relative viability", "setting": "NCI-H1793; first compound 0.253 µM", "value": 0.379}, {"measurement": "relative viability", "setting": "NCI-H1793; first compound 0.8 µM", "value": 0.385}, {"measurement": "relative viability", "setting": "NCI-H1793; first compound 2.53 µM", "value": 0.461}, {"measurement": "relative viability", "setting": "NCI-H1915; first compound 0.08 µM", "value": 0.692}, {"measurement": "relative viability", "setting": "NCI-H1915; first compound 0.8 µM", "value": 0.675}, {"measurement": "relative viability", "setting": "NCI-H1915; first compound 2.53 µM", "value": 0.644}, {"measurement": "relative viability", "setting": "LCLC-97TM1; first compound 0.08 µM", "value": 0.269}, {"measurement": "relative viability", "setting": "LCLC-97TM1; first compound 0.253 µM", "value": 0.186}, {"measurement": "relative viability", "setting": "LCLC-97TM1; first compound 0.8 µM", "value": 0.15}, {"measurement": "relative viability", "setting": "LCLC-97TM1; first compound 2.53 µM", "value": 0.235}, {"measurement": "relative viability", "setting": "NCI-H441; first compound 0.08 µM", "value": 1.02}, {"measurement": "relative viability", "setting": "NCI-H441; first compound 0.8 µM", "value": 0.967}, {"measurement": "relative viability", "setting": "NCI-H441; first compound 2.53 µM", "value": 0.993}, {"measurement": "relative viability", "setting": "A-427; first compound 0.08 µM", "value": 0.838}, {"measurement": "relative viability", "setting": "A-427; first compound 0.253 µM", "value": 0.602}, {"measurement": "relative viability", "setting": "A-427; first compound 0.8 µM", "value": 0.692}, {"measurement": "relative viability", "setting": "A-427; first compound 2.53 µM", "value": 0.714}, {"measurement": "relative viability", "setting": "NCI-H460; first compound 0.08 µM", "value": 0.579}, {"measurement": "relative viability", "setting": "NCI-H460; first compound 0.8 µM", "value": 0.557}, {"measurement": "relative viability", "setting": "NCI-H460; first compound 2.53 µM", "value": 0.541}, {"measurement": "relative viability", "setting": "NCI-H322M; first compound 0.08 µM", "value": 0.526}, {"measurement": "relative viability", "setting": "NCI-H322M; first compound 0.253 µM", "value": 0.546}, {"measurement": "relative viability", "setting": "NCI-H322M; first compound 0.8 µM", "value": 0.566}, {"measurement": "relative viability", "setting": "NCI-H322M; first compound 2.53 µM", "value": 0.675}, {"measurement": "relative viability", "setting": "NCI-H23; first compound 0.08 µM", "value": 0.313}, {"measurement": "relative viability", "setting": "NCI-H23; first compound 0.253 µM", "value": 0.16}, {"measurement": "relative viability", "setting": "NCI-H23; first compound 0.8 µM", "value": 0.247}, {"measurement": "relative viability", "setting": "NCI-H23; first compound 2.53 µM", "value": 0.256}, {"measurement": "relative viability", "setting": "NCI-H1755; first compound 0.08 µM", "value": 0.459}, {"measurement": "relative viability", "setting": "NCI-H1755; first compound 0.253 µM", "value": 0.445}, {"measurement": "relative viability", "setting": "NCI-H1755; first compound 0.8 µM", "value": 0.404}, {"measurement": "relative viability", "setting": "NCI-H1755; first compound 2.53 µM", "value": 0.443}, {"measurement": "relative viability", "setting": "NCI-H1666; first compound 0.08 µM", "value": 0.852}, {"measurement": "relative viability", "setting": "NCI-H1666; first compound 0.253 µM", "value": 0.864}, {"measurement": "relative viability", "setting": "NCI-H1666; first compound 0.8 µM", "value": 0.838}, {"measurement": "relative viability", "setting": "NCI-H1666; first compound 2.53 µM", "value": 0.78}, {"measurement": "relative viability", "setting": "PC-3 [JPC-3]; first compound 0.08 µM", "value": 0.805}, {"measurement": "relative viability", "setting": "PC-3 [JPC-3]; first compound 0.253 µM", "value": 0.761}, {"measurement": "relative viability", "setting": "PC-3 [JPC-3]; first compound 0.8 µM", "value": 0.799}, {"measurement": "relative viability", "setting": "PC-3 [JPC-3]; first compound 2.53 µM", "value": 0.725}, {"measurement": "relative viability", "setting": "LU99A; first compound 0.08 µM", "value": 0.393}, {"measurement": "relative viability", "setting": "LU99A; first compound 0.253 µM", "value": 0.368}, {"measurement": "relative viability", "setting": "LU99A; first compound 0.8 µM", "value": 0.333}, {"measurement": "relative viability", "setting": "LU99A; first compound 2.53 µM", "value": 0.389}, {"measurement": "relative viability", "setting": "NCI-H2126; first compound 0.08 µM", "value": 1.03}, {"measurement": "relative viability", "setting": "NCI-H2126; first compound 0.253 µM", "value": 0.939}, {"measurement": "relative viability", "setting": "NCI-H2126; first compound 0.8 µM", "value": 0.984}, {"measurement": "relative viability", "setting": "NCI-H2126; first compound 2.53 µM", "value": 1.02}, {"measurement": "relative viability", "setting": "LOU-NH91; first compound 0.08 µM", "value": 0.823}, {"measurement": "relative viability", "setting": "LOU-NH91; first compound 0.253 µM", "value": 0.753}, {"measurement": "relative viability", "setting": "LOU-NH91; first compound 0.8 µM", "value": 0.768}, {"measurement": "relative viability", "setting": "LOU-NH91; first compound 2.53 µM", "value": 0.83}, {"measurement": "relative viability", "setting": "LXF-289; first compound 0.08 µM", "value": 1.16}, {"measurement": "relative viability", "setting": "LXF-289; first compound 0.253 µM", "value": 1.05}, {"measurement": "relative viability", "setting": "LXF-289; first compound 0.8 µM", "value": 1.18}, {"measurement": "relative viability", "setting": "LXF-289; first compound 2.53 µM", "value": 1.19}, {"measurement": "relative viability", "setting": "BEN; first compound 0.08 µM", "value": 0.714}, {"measurement": "relative viability", "setting": "BEN; first compound 0.253 µM", "value": 0.699}, {"measurement": "relative viability", "setting": "BEN; first compound 0.8 µM", "value": 0.726}, {"measurement": "relative viability", "setting": "BEN; first compound 2.53 µM", "value": 0.736}, {"measurement": "relative viability", "setting": "NCI-H1395; first compound 0.08 µM", "value": 0.425}, {"measurement": "relative viability", "setting": "NCI-H1395; first compound 0.253 µM", "value": 0.43}, {"measurement": "relative viability", "setting": "NCI-H1395; first compound 0.8 µM", "value": 0.4}, {"measurement": "relative viability", "setting": "NCI-H1395; first compound 2.53 µM", "value": 0.374}, {"measurement": "relative viability", "setting": "NCI-H650; first compound 0.08 µM", "value": 0.979}, {"measurement": "relative viability", "setting": "NCI-H650; first compound 0.253 µM", "value": 0.872}, {"measurement": "relative viability", "setting": "NCI-H650; first compound 0.8 µM", "value": 0.892}, {"measurement": "relative viability", "setting": "NCI-H650; first compound 2.53 µM", "value": 1.03}, {"measurement": "relative viability", "setting": "NCI-H2170; first compound 0.08 µM", "value": 1.01}, {"measurement": "relative viability", "setting": "NCI-H2170; first compound 0.8 µM", "value": 0.774}, {"measurement": "relative viability", "setting": "NCI-H2170; first compound 2.53 µM", "value": 0.695}, {"measurement": "relative viability", "setting": "HARA; first compound 0.08 µM", "value": 0.297}, {"measurement": "relative viability", "setting": "HARA; first compound 0.253 µM", "value": 0.191}, {"measurement": "relative viability", "setting": "HARA; first compound 0.8 µM", "value": 0.37}, {"measurement": "relative viability", "setting": "HARA; first compound 2.53 µM", "value": 1}, {"measurement": "relative viability", "setting": "NCI-H1944; first compound 0.08 µM", "value": 0.668}, {"measurement": "relative viability", "setting": "NCI-H1944; first compound 0.8 µM", "value": 0.488}, {"measurement": "relative viability", "setting": "NCI-H1944; first compound 2.53 µM", "value": 0.521}]}
